From paper PMC4186413, “Identification of metabolic pathways and enzyme systems involved in the in vitro human hepatic metabolism of dronedarone, a potent new oral antiarrhythmic drug” (Pharmacology Research & Perspectives, 2014)
Each block holds one compound with its values, some of them ahead of it.

How the values were obtained:
CYP3A4 = settings: reversible inhibition, human liver microsomes, reported; cited from earlier work
CYP2D6 = target: T1, CYP2D6 (Homo sapiens, UniProt P10635); settings: reversible inhibition, human liver microsomes, reported; cited from earlier work
T1 construct: purchased BD Gentest (Woburn, MA); host or cells: baculovirus-infected insect cells

[1] = cited from earlier work
MAO-A = target: T2, MAO-A (Homo sapiens, UniProt P21397); assay: Oxidation by recombinant human MAO-A; assay type: in vitro ADME; settings: 1 mg/mL, 5 μmol/L, 30 min, no cofactor
T2 construct: purchased BD Gentest (Woburn, MA); host or cells: baculovirus-infected insect cells
Excerpt: (§1) Recombinant human CYPs (Supersomes™; BD Gentes, Woburn, MA: CYP1A1, CYP1A2, CYP2A6, CYP2B6, CYP2C8, CYP2C9, CYP2C18, CYP2C19, CYP2D6, CYP2E1, CYP3A4 and CYP3A5), FMOs (Supersomes™: FMO1, FMO3, FMO5), MAOs (Supersomes™: MAO-A and MAO-B), and UGTs (Supersomes™: UGT1A1, UGT1A3, UGT1A4, UGT1A6, UGT1A7, UGT1A8, UGT1A9, UGT1A10, UGT2B4, UGT2B7, UGT2B15, and UGT2B17) expressed in baculovirus-infected insect cells and control microsomes from insect cells infected with wild-type baculovirus were all obtained from BD Gentest (Woburn, MA). […]
(§2) In human liver microsomes and recombinant isoforms, the percentage of metabolism was determined on the basis of unchanged drug disappearance, using the following equation [drawing 1] where UDt = 30 min represents the unchanged drug peak area after a 30-min incubation period and UDt = 0, the unchanged drug peak area at t = 0. […]
(§3) Figure 5 Contribution of individual CYPs, FMOs and MAOs to the oxidation of dronedarone and its metabolites. […] Unchanged drugs were quantified by LC/MS-MS relative to the synthetic references as described in Materials and Methods. Data are expressed as the percentage of oxidation.

CYP2C19 = target: T3, CYP2C19 (Homo sapiens, UniProt P33261); assay: Oxidation by recombinant human CYP2C19; assay type: in vitro ADME; settings: 100 pmol/mL, 5 μmol/L, 30 min, NADPH
T3 construct: purchased BD Gentest (Woburn, MA); host or cells: baculovirus-infected insect cells
Excerpt: as §1, §2, §3

UGT2B7 = target: T4, UGT2B7 (Homo sapiens, UniProt P16662); assay: Glucuronidation by recombinant human UGT2B7; assay type: in vitro ADME; settings: 1 mg/mL, 5 μmol/L, 30 min, UDPGA
T4 construct: purchased BD Gentest (Woburn, MA); host or cells: baculovirus-infected insect cells
Excerpt: (§4) Recombinant human CYPs (Supersomes™; BD Gentes, Woburn, MA: CYP1A1, CYP1A2, CYP2A6, CYP2B6, CYP2C8, CYP2C9, CYP2C18, CYP2C19, CYP2D6, CYP2E1, CYP3A4 and CYP3A5), FMOs (Supersomes™: FMO1, FMO3, FMO5), MAOs (Supersomes™: MAO-A and MAO-B), and UGTs (Supersomes™: UGT1A1, UGT1A3, UGT1A4, UGT1A6, UGT1A7, UGT1A8, UGT1A9, UGT1A10, UGT2B4, UGT2B7, UGT2B15, and UGT2B17) expressed in baculovirus-infected insect cells and control microsomes from insect cells infected with wild-type baculovirus were all obtained from BD Gentest (Woburn, MA).
(§5) For glucuronidation pathways, the assay mixture was composed of human liver microsomes (2 mg·mL^−1) or microsomes of baculovirus-infected cells expressing human UGTs (1 mg·mL^−1), uridine 5′-diphosphoglucuronic acid (UDPGA) (3 mmol/L), 100 mmol/L Tris HCl (pH 7.4) containing 5 mmol/L MgCl2 and 5 μmol/L of the investigated compound dissolved in DMSO in a final volume of 500 μL. The final concentration of DMSO in the reaction mixture was less than 1% (v/v). […]
(§6) Figure 7 Contribution of individual UGTs to the glucuronidation of propanoic acid-dronedarone and phenol-dronedarone. […] Unchanged drugs were quantified by LC/MS-MS relative to the synthetic references as described in Materials and Methods. Data are expressed as the percentage of glucuronidation.

UGT1A1 = target: T5, UGT1A1 (Homo sapiens, UniProt P22309); assay: Glucuronidation by recombinant human UGT1A1; assay type: in vitro ADME; settings: 1 mg/mL, 5 μmol/L, 30 min, UDPGA
T5 construct: purchased BD Gentest (Woburn, MA); host or cells: baculovirus-infected insect cells
Excerpt: as §4, §5, §6

UGT1A3 = target: T6, UGT1A3 (Homo sapiens, UniProt P35503); assay: Glucuronidation by recombinant human UGT1A3; assay type: in vitro ADME; settings: 1 mg/mL, 5 μmol/L, 30 min, UDPGA
T6 construct: purchased BD Gentest (Woburn, MA); host or cells: baculovirus-infected insect cells
Excerpt: as §4, §5, §6

UGT2B15 = target: T7, UGT2B15 (Homo sapiens, UniProt P54855); assay: Glucuronidation by recombinant human UGT2B15; assay type: in vitro ADME; settings: 1 mg/mL, 5 μmol/L, 30 min, UDPGA
T7 construct: purchased BD Gentest (Woburn, MA); host or cells: baculovirus-infected insect cells
Excerpt: as §4, §5, §6

CYP2C8 = target: T8, CYP2C8 (Homo sapiens, UniProt P10632); assay: Oxidation by recombinant human CYP2C8; assay type: in vitro ADME; settings: 100 pmol/mL, 5 μmol/L, 30 min, NADPH
T8 construct: purchased BD Gentest (Woburn, MA); host or cells: baculovirus-infected insect cells
Excerpt: as §1, §2, §3

T4 sequence (P16662 24-529): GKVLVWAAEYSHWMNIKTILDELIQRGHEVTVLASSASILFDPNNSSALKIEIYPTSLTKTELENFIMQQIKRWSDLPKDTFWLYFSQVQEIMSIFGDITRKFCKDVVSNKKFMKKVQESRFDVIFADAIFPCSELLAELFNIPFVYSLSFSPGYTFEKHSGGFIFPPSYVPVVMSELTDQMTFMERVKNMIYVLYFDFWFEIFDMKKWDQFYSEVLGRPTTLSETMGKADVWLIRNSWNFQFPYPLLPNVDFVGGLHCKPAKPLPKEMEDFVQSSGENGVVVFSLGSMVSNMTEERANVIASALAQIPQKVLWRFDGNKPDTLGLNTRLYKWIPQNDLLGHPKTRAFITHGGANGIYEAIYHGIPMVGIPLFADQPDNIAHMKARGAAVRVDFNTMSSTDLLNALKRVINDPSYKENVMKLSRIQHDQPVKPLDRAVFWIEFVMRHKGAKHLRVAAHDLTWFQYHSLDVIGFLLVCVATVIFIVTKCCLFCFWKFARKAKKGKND
T1 sequence (P10635 whole entry): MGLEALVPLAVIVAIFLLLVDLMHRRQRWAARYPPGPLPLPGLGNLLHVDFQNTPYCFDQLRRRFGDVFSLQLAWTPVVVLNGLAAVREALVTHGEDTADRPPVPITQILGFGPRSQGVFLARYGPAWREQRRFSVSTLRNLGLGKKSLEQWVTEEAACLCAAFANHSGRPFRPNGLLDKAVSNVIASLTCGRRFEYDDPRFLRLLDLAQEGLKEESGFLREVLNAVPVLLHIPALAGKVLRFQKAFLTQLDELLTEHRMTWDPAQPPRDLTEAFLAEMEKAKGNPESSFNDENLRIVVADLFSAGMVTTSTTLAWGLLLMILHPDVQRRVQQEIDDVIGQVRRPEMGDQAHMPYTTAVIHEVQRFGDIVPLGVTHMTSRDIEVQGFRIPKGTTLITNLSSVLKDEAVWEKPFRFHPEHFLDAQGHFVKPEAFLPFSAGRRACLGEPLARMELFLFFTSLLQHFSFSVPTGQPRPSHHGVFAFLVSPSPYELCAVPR
T8 sequence (P10632 whole entry): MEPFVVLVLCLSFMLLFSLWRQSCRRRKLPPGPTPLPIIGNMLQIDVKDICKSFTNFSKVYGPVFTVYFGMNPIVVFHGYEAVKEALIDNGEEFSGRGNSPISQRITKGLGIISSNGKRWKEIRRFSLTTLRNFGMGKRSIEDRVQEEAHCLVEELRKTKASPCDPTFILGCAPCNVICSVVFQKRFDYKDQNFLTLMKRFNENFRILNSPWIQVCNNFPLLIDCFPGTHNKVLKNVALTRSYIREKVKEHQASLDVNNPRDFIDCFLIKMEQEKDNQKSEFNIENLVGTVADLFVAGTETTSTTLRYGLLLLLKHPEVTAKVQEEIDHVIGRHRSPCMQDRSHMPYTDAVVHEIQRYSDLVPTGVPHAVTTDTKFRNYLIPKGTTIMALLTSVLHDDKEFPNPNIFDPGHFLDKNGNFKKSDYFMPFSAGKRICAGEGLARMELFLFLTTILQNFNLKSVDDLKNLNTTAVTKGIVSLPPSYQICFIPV
T2 sequence (P21397 whole entry): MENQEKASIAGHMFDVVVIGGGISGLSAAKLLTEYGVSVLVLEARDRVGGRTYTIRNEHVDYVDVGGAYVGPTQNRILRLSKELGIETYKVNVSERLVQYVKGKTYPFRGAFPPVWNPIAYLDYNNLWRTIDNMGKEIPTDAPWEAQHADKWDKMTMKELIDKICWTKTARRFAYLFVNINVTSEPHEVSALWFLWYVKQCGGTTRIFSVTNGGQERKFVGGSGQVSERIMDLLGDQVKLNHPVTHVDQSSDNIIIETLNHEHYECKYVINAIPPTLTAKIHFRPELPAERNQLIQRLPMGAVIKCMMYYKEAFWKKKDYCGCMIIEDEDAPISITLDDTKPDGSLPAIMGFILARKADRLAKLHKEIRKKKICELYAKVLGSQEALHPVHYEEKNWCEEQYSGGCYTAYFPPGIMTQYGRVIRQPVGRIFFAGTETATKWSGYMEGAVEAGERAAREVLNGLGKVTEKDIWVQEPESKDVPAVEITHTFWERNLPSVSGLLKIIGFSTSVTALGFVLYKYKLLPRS
T5 sequence (P22309 26-533): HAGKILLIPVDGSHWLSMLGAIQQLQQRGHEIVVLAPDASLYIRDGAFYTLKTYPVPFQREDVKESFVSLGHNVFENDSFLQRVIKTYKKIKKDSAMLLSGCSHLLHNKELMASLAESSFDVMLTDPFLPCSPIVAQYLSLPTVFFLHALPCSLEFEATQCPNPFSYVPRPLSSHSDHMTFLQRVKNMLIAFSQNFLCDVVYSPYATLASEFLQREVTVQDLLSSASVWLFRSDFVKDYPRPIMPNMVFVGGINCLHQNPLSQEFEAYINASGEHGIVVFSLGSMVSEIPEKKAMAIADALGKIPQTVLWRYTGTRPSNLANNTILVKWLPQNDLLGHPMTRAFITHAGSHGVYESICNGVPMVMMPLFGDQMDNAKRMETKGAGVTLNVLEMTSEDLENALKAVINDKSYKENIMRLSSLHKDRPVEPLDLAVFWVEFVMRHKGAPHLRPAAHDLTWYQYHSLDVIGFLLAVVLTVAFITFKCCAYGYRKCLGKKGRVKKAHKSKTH
T3 sequence (P33261 whole entry): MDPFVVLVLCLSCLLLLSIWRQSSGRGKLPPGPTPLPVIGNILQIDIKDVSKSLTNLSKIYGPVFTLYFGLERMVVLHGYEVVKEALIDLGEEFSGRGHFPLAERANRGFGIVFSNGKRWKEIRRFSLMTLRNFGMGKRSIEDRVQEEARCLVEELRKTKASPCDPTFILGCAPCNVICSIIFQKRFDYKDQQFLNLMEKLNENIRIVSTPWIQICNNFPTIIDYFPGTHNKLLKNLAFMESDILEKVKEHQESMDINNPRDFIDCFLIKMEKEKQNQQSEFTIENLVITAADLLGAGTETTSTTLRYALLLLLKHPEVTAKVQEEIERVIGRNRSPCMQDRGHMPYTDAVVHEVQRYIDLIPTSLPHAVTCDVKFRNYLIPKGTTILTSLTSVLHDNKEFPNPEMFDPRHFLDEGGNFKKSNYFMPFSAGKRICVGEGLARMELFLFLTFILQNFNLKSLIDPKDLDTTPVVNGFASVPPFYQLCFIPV
T7 sequence (P54855 24-530): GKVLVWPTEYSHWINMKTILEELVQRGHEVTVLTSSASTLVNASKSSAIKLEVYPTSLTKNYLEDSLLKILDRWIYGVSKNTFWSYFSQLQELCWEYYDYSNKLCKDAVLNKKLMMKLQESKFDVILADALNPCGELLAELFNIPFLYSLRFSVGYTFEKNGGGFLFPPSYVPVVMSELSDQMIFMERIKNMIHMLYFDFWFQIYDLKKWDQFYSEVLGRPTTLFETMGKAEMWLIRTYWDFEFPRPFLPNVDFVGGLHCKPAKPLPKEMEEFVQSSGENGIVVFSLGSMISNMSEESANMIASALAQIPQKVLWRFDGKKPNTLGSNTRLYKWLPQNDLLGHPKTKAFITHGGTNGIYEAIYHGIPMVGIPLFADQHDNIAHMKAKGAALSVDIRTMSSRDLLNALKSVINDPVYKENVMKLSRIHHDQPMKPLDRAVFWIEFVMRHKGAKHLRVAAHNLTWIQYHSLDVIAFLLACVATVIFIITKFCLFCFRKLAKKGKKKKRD
T6 sequence (P35503 29-534): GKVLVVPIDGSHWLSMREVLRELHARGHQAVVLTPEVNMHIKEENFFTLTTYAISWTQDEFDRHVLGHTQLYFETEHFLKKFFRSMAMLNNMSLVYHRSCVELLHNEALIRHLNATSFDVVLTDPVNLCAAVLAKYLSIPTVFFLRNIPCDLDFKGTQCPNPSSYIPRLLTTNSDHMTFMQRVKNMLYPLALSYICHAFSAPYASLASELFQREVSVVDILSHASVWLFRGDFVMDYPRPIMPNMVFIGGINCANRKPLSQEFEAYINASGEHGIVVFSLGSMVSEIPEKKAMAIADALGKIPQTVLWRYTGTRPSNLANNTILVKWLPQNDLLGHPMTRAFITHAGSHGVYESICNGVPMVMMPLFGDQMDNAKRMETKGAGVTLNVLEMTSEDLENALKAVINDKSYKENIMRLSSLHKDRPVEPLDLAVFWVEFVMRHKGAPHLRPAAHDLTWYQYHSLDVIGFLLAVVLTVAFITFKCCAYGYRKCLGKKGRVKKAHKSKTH

Structure (SMILES): CCCCc1oc2ccc(NS(C)(=O)=O)cc2c1C(=O)c1ccc(OCCCN(CCCC)CCCC)cc1.Cl [Dronedarone, N-(2-Butyl-3-(4-(3-(dibutylamino)propoxy)benzoyl)-5-benzofuranyl)methanesulfonamide, hydrochloride]
Ki (CYP2D6): 5 µM
Increase of dronedarone exposure by ketoconazole ([1]; after single dose, clinical findings): 25 fold
Increase of steady state exposure of metoprolol ([1]; dronedarone 400–800 mg twice a day, metoprolol 200 mg daily, CYP2D6 extensive metabolizers, ref Damy et al. [2004]): 1.6- to 2.3 folds
Lowering of dronedarone exposure by rifampicin ([1]; rifampicin 600 mg once daily for 7 days): 5 fold

Percentage of oxidation (unchanged drug disappearance) by MAO-A (MAO-A): 98%
Structure (SMILES): CCCCNCCCOc1ccc(C(=O)c2c(CCCC)oc3ccc(NS(C)(=O)=O)cc23)cc1 [N-debutyl-dronedarone]

Percentage of oxidation (unchanged drug disappearance) by CYP2C19 (CYP2C19): 52%
Structure (SMILES): CCCCc1oc2ccc(NS(C)(=O)=O)cc2c1C(=O)c1ccc(O)cc1 [Phenol-dronedarone]
Glucuronosyl transferase activity of UGT2B7 (UGT2B7): significant glucuronosyl transferase activity
Glucuronosyl transferase activity of UGT1A1 (UGT1A1): significant glucuronosyl transferase activity
Glucuronosyl transferase activity of UGT1A3 (UGT1A3): significant glucuronosyl transferase activity
Glucuronosyl transferase activity of UGT2B15 (UGT2B15): significant glucuronosyl transferase activity

Percentage of oxidation (unchanged drug disappearance) by CYP2C8 (CYP2C8): 28%
Structure (SMILES): CCCCc1oc2ccc(NS(C)(=O)=O)cc2c1C(=O)c1ccc(OCCC(=O)O)cc1 [Propanoic acid-dronedarone]
Glucuronosyl transferase activity of UGT2B7 (UGT2B7): significant glucuronosyl transferase activity
